Values quoted from earlier work in patent publication US7446116B2, “Montelukast amantadine salt” (Synthon BV, priority 2006, dated 2008).
Counter-ions that a name gives are not always drawn.

Experiments:
[1] = system: human patient; conditions: doses of at least 200 mg per day
[2] = system: rats; conditions: oral administration

Row | SMILES | safety for a human patient [1] | toxicity, expressed as LD50 value [2]
1 | NC12CC3CC(CC(C3)C1)C2 [amantadine hydrochloride] | safe and nontoxic | –
2 | CC(C)(C)N [tert.butyl amine] | – | 44 mg/kg
